“Also recorded” adds a separate entry of the source.
Assays:
[1] = system: S. cerevisiae WT and sld mutant strains; test: Formation of supersized lipid droplets (SLDs) in yeast, Nile red staining and fluorescence microscopy; assay type: cell-based, Saccharomyces cerevisiae
Description: To screen for yeast mutants that generate supersized LDs, cells were cultured in synthetic complete media (0.67% yeast nitrogen base, 2% dextrose, and amino acids) in 96-well plates at 30° C. till stationary phase. For TetO7-regulated strains, 15 μg/ml doxycycline was added to repress specific genes. Cells were stained with 20 μg/ml Nile red for LDs and observed by fluorescence microscopy. Yeast strains found to contain SLDs were recultured in synthetic complete media with aeration in 10 ml culture tubes to confirm the phenotype. These strains were also grown in YPD media (1% yeast extract, 2% peptone, and 2% dextrose) to examine the morphology of LDs.
For phospholipid precursor treatment, synthetic complete medium was supplemented with 1 mM choline, 1 mM ethanolamine, or 75 μM inositol.
Fluorescent imaging was performed under a Leica CTR5500 microscope (Wetzlar, Germany) with an EL6000 fluorescent lamp. Images were taken with a DFC300 FX digital camera and a Leica LAS AF software. Yeast cells were viewed under a ×100/1.30 oil immersion objective lens. A 450-490-nm bandpass excitation filter, a 510 dichromatic mirror, and a 515-nm longpass emission filter (Leica filter cube I3) were chosen to observe Nile red-stained LDs. For statistical presentation of the percentage of cells containing supersized LDs, 200 cells were observed and percentage was calculated. The experiments were done in triplicates and the result was shown as mean±SD. Mammalian LDs were stained with Bodipy 493/503 (Invitrogen) and observed with a 470/40-nm bandpass excitation filter, a 500-nm dichromatic mirror, and a 525/50-nm bandpass emission filter (Leica filter cube GFP).

[2] = system: lipid droplets of S. cerevisiae mutant strains; test: Lipidomic analysis of lipid droplets isolated from yeast (PE/PL and PL/TAG ratio); assay type: cell-based, Saccharomyces cerevisiae
Description: Lipid droplets were isolated as described in Fei et al. (Fei et al., (2008), “Fld1p, a functional homologue of human seipin, regulates the size of lipid droplets in yeast”, J Cell Biol 180: 473-482).
Lipids were extracted from zymolase-digested lyophilized yeast cells, isolated ER microsomes or lipid droplets. Briefly 900 μl ice-clod chlorofom:methanol (1:2) was added to samples. Mixtures were vigorously vortexed for 1 min, and incubated for 2 h in vacuum container with rotary shaking at 4° C. Then 400 μl ice-cold water and 300 μl chloroform were added, vortexed and incubated on ice for 1 min. After centrifugation at 12000 rpm for 3 min at 4° C., the lower organic phase was collected. Subsequently, 50 μl 1 M HCl and 500 μl chloroform were added to the remainder, vortexed, and incubated on ice for 3 min. The lower organic phase was also collected after centrifugation at 12000 rpm for 3 min at 4° C., and combined with the first extract. The extracted lipids were blown dry with nitrogen gas, and resuspended in solvent for mass spectrometry analysis.
Lipidomic analysis, and quantitative measurement of neutral lipids via thin layer chromatography (TLC) were performed as described in Fei et al. (Fei et al., (2008), “Fld1p, a functional homologue of human seipin, regulates the size of lipid droplets in yeast”, J Cell Biol 180: 473-482) and Low et al. (Low et al., (2008), “Caspase-dependent and -independent lipotoxic cell-death pathways in fission yeast”, J Cell Sci 121: 2671-2684). TLC plates were developed in chloroform/methanol/water (65:25:4) to separate phospholipid species.

[3] = system: Chlamydomonas homologue of CDS1p (gene C—30067); test: Lipid droplet accumulation in Chlamydomonas after RNAi knockdown of the CDS1p homologue (Nile red); assay type: cell-based; conditions: C. reinhardtii 21 gr transformed with hairpin RNAi construct, compared with wild type
Description: A hairpin RNAi construct was made by using 1st-3rd exon of the Chlamydomonas homologue of CDS1p driven by LC8 promoter. The gene name of the homologue is C—30067. The LC8 promoter is from Chlamydomonas.
This construct was transformed into Chlamydomonas using a glass-bead method. The selection marker for transformation was APHVIII, whose expression conferred resistant to paromomysin.
The survival strains on agar plates were screened by using Nile Red staining. 1 ug/ml final concentration of Nile red was used.
A Zeiss fluorescence microscope (Observer.Z1) with GFP filter was used for screening putative RNAi strains.

CCCCCCCC/C=C\CCCCCCCC(=O)O [oleate]
number of cells producing SLD ([1]; pah1Δ cells, supplement 1 mM each (about 3% of cells without supplement)): no effect

NCCO [ethanolamine]
SLD formation ([1]; most of the mutants, SC media supplemented with 1 mM ethanolamine): enhanced SLD formation in most of the mutants
proportion of PE on lipid droplets ([2]; fld1Δ and cds1 cells, SC medium with ethanolamine): significantly increased
PE to PL ratio of LDs ([2]; ino4Δ cells, SC medium with ethanolamine): moderately increased

O[C@H]1[C@H](O)[C@@H](O)[C@H](O)[C@@H](O)[C@H]1O [inositol]
SLD formation ([1]; all sld mutants, SC media supplemented with 75 μM inositol): reduced the SLD formation in all mutants; also recorded: significant reduction of SLD formation
biogenesis of supersized LDs ([1]; ino4Δ cells, inositol addition, higher PE to PL ratio persisted): completely abolished the biogenesis of supersized LDs
phospholipid to TAG ratio of LDs ([2]; cds1 or ino4Δ mutant, inositol supplementation): did not increase

B1: CDS1 gene RNAi: hairpin RNAi construct of exons 1-3 of the Chlamydomonas CDS1p homologue (C—30067, SEQ ID NO: 41), LC8 promoter (nucleic acid)
DNA: ATGCGACCAAAACAACAAGCTCAGGTCACCGCCGCGGAGGACACCGCGTCGGAGCCGGAGCCGGAGCCCAAGCCCGTGGATCGAAAGTCGAGGCTCAGGTCCTTCCGCGTACGCACCATCTCCTCGGTCTTGCTCATCGGCGGGTTCATCGGCATCATTTGGGCGGGTCATGTGCCGCTTATGTTCTTCATCCTGCTACTCCAGTTCCTGGTGGCCCGGGAGCTCTTCCGCATCGCCTACATAGCGGAGAAGTCCAAACGCAGCC
modifications: LC8 promoter; Hairpin RNAi construct targetting Chlamydomonas sp. CDS1p Homologue
lipid droplet accumulation [3]: accumulated lipid droplet drastically

Reference: patent US20140322771A1, “Lipid Production” (THE UNIVERSITY OF QUEENSLAND, priority 2010, published 2014)
